From patent publication US20230111310A1, “CARBOXYLIC ACID DERIVATIVE-SUBSTITUTED IMINO ARYL COMPOUND, PREPARATION METHOD THEREFOR, HERBICIDAL COMPOSITION AND USE THEREOF” (Qingdao Kingagroot Chemical Compound Co., Ltd., priority 2020, published 2023)

System: Abutilon theophrasti
Assay: Weeding effect in post-emergence stage
Type: in vivo
Settings: Dose 15 g/ha; level of fresh weight growth control rate
Excerpt: (§1) The activity level criteria for plant damage (i.e., growth control rate) are as follows:
(§2) Monocotyledonous and dicotyledonous weed seeds (Descurainia sophia, Capsella bursa-pastoris, Abutilon theophrasti, Galium aparine, Stellaria media, Lithospermum arvense, rorippa indica, Alopecurus aequalis, Alopecurus japonicus, Eleusine indica, Beckmannia syzigachne, Sclerochloa dura, Conyza Canadensis, Phleum paniculatum, Veronica didyma Tenore, Bromus japonicus, Aegilops tauschii, Phalaris arundinacea, Amaranthus retroflexus, Chenopodiaceae, Commelina communis, Sonchus arvensis, Convolvulus arvensis, Cirsium setosum, Bidens tripartita L., Solanum nigrum, Acalypha australis, Digitaria sanguinalis, Echinochloa crusgalli, Setaria viridis, Setaria glauca, Leptochloa chinensis, Monochoria vaginalis, Sagittaria trifolia, Scirpus juncoides, Cyperus rotundus, Cyperus iria, Cyperus difformis, Fimbristylis, Portulaca oleracea, Xanthium sibiricum, Pharbitis nil, etc.) and major crop seeds (wheat, corn, rice, soybean, cotton, oilseed rape, millet, sorghum, potato, sesame, ricinus, etc.) were placed in plastic pots filled with soil, then covered with 0.5-2 cm of soil, allowed to grow in a good greenhouse environment. After 2 weeks of sowing, the test plants were treated in the 2-3 leaf stage. The tested compounds of the present invention were respectively dissolved in acetone, then added with Tween 80 and 1.5 liter/ha of emulsifiable concentrate of methyl oleate as synergist, diluted with a certain amount of water to obtain a solution with a certain concentration, and sprayed with a spray tower onto the plants. After the application, the plants were cultured for 3 weeks in the greenhouse, and then the experimental results of the weeding were counted. […]

| Compound | Weeding effect in post-emergence stage, Abutilon theophrasti |
| --- | --- |
| CCCOC(=O)C(C)O/N=C/c1cc(-n2c(=O)n(C)c(=S)n(C)c2=O)c(F)cc1Cl (racemic) [Compound 4] | 5 (Level 5: growth control rate is above 85%) |
| CC(C)OC(=O)C(C)O/N=C/c1cc(-n2c(=O)n(C)c(=S)n(C)c2=O)c(F)cc1Cl (racemic) [Compound 5] | 5 (Level 5: growth control rate is above 85%) |
| C=CCCOC(=O)C(C)O/N=C/c1cc(-n2c(=O)n(C)c(=S)n(C)c2=O)c(F)cc1Cl (racemic) [Compound 6] | 5 (Level 5: growth control rate is above 85%) |
| CC(O/N=C/c1cc(-n2c(=O)n(C)c(=S)n(C)c2=O)c(F)cc1Cl)C(=O)OCC1CC1 (racemic) [Compound 9] | 5 (Level 5: growth control rate is above 85%) |
| CC(O/N=C/c1cc(-n2c(=O)n(C)c(=S)n(C)c2=O)c(F)cc1Cl)C(=O)OCCF (racemic) [Compound 10] | 5 (Level 5: growth control rate is above 85%) |
| CC(O/N=C/c1cc(-n2c(=O)n(C)c(=S)n(C)c2=O)c(F)cc1Cl)C(=O)OCCCF (racemic) [Compound 11] | 5 (Level 5: growth control rate is above 85%) |

System: Alopecurus japonicus
Assay: Weeding effect in post-emergence stage
Type: in vivo
Settings: Dose 15 g/ha; level of fresh weight growth control rate
Excerpt: as §1, §2

| Compound | Weeding effect in post-emergence stage, Alopecurus japonicus |
| --- | --- |
| CCCOC(=O)C(C)O/N=C/c1cc(-n2c(=O)n(C)c(=S)n(C)c2=O)c(F)cc1Cl (racemic) [Compound 4] | 5 (Level 5: growth control rate is above 85%) |
| CC(C)OC(=O)C(C)O/N=C/c1cc(-n2c(=O)n(C)c(=S)n(C)c2=O)c(F)cc1Cl (racemic) [Compound 5] | 5 (Level 5: growth control rate is above 85%) |
| C=CCCOC(=O)C(C)O/N=C/c1cc(-n2c(=O)n(C)c(=S)n(C)c2=O)c(F)cc1Cl (racemic) [Compound 6] | 5 (Level 5: growth control rate is above 85%) |
| CC(O/N=C/c1cc(-n2c(=O)n(C)c(=S)n(C)c2=O)c(F)cc1Cl)C(=O)OCC1CC1 (racemic) [Compound 9] | 5 (Level 5: growth control rate is above 85%) |
| CC(O/N=C/c1cc(-n2c(=O)n(C)c(=S)n(C)c2=O)c(F)cc1Cl)C(=O)OCCF (racemic) [Compound 10] | 5 (Level 5: growth control rate is above 85%) |
| CC(O/N=C/c1cc(-n2c(=O)n(C)c(=S)n(C)c2=O)c(F)cc1Cl)C(=O)OCCCF (racemic) [Compound 11] | 5 (Level 5: growth control rate is above 85%) |

System: Digitaria sanguinalis
Assay: Weeding effect in post-emergence stage
Type: in vivo
Settings: Dose 15 g/ha; level of fresh weight growth control rate
Excerpt: as §1, §2

| Compound | Weeding effect in post-emergence stage, Digitaria sanguinalis |
| --- | --- |
| CCCOC(=O)C(C)O/N=C/c1cc(-n2c(=O)n(C)c(=S)n(C)c2=O)c(F)cc1Cl (racemic) [Compound 4] | 5 (Level 5: growth control rate is above 85%) |
| CC(C)OC(=O)C(C)O/N=C/c1cc(-n2c(=O)n(C)c(=S)n(C)c2=O)c(F)cc1Cl (racemic) [Compound 5] | 5 (Level 5: growth control rate is above 85%) |
| C=CCCOC(=O)C(C)O/N=C/c1cc(-n2c(=O)n(C)c(=S)n(C)c2=O)c(F)cc1Cl (racemic) [Compound 6] | 5 (Level 5: growth control rate is above 85%) |
| CC(O/N=C/c1cc(-n2c(=O)n(C)c(=S)n(C)c2=O)c(F)cc1Cl)C(=O)OCC1CC1 (racemic) [Compound 9] | 5 (Level 5: growth control rate is above 85%) |
| CC(O/N=C/c1cc(-n2c(=O)n(C)c(=S)n(C)c2=O)c(F)cc1Cl)C(=O)OCCF (racemic) [Compound 10] | 5 (Level 5: growth control rate is above 85%) |
| CC(O/N=C/c1cc(-n2c(=O)n(C)c(=S)n(C)c2=O)c(F)cc1Cl)C(=O)OCCCF (racemic) [Compound 11] | 5 (Level 5: growth control rate is above 85%) |

System: Eleusine indica
Assay: Weeding effect in post-emergence stage
Type: in vivo
Settings: Dose 15 g/ha; level of fresh weight growth control rate
Excerpt: as §1, §2

| Compound | Weeding effect in post-emergence stage, Eleusine indica |
| --- | --- |
| CCCOC(=O)C(C)O/N=C/c1cc(-n2c(=O)n(C)c(=S)n(C)c2=O)c(F)cc1Cl (racemic) [Compound 4] | 5 (Level 5: growth control rate is above 85%) |
| CC(C)OC(=O)C(C)O/N=C/c1cc(-n2c(=O)n(C)c(=S)n(C)c2=O)c(F)cc1Cl (racemic) [Compound 5] | 5 (Level 5: growth control rate is above 85%) |
| C=CCCOC(=O)C(C)O/N=C/c1cc(-n2c(=O)n(C)c(=S)n(C)c2=O)c(F)cc1Cl (racemic) [Compound 6] | 5 (Level 5: growth control rate is above 85%) |
| CC(O/N=C/c1cc(-n2c(=O)n(C)c(=S)n(C)c2=O)c(F)cc1Cl)C(=O)OCC1CC1 (racemic) [Compound 9] | 5 (Level 5: growth control rate is above 85%) |
| CC(O/N=C/c1cc(-n2c(=O)n(C)c(=S)n(C)c2=O)c(F)cc1Cl)C(=O)OCCF (racemic) [Compound 10] | 5 (Level 5: growth control rate is above 85%) |
| CC(O/N=C/c1cc(-n2c(=O)n(C)c(=S)n(C)c2=O)c(F)cc1Cl)C(=O)OCCCF (racemic) [Compound 11] | 5 (Level 5: growth control rate is above 85%) |

System: Setaria viridis
Assay: Weeding effect in post-emergence stage
Type: in vivo
Settings: Dose 15 g/ha; level of fresh weight growth control rate
Excerpt: as §1, §2

| Compound | Weeding effect in post-emergence stage, Setaria viridis |
| --- | --- |
| CCCOC(=O)C(C)O/N=C/c1cc(-n2c(=O)n(C)c(=S)n(C)c2=O)c(F)cc1Cl (racemic) [Compound 4] | 5 (Level 5: growth control rate is above 85%) |
| CC(C)OC(=O)C(C)O/N=C/c1cc(-n2c(=O)n(C)c(=S)n(C)c2=O)c(F)cc1Cl (racemic) [Compound 5] | 5 (Level 5: growth control rate is above 85%) |
| C=CCCOC(=O)C(C)O/N=C/c1cc(-n2c(=O)n(C)c(=S)n(C)c2=O)c(F)cc1Cl (racemic) [Compound 6] | 5 (Level 5: growth control rate is above 85%) |
| CC(O/N=C/c1cc(-n2c(=O)n(C)c(=S)n(C)c2=O)c(F)cc1Cl)C(=O)OCC1CC1 (racemic) [Compound 9] | 5 (Level 5: growth control rate is above 85%) |
| CC(O/N=C/c1cc(-n2c(=O)n(C)c(=S)n(C)c2=O)c(F)cc1Cl)C(=O)OCCF (racemic) [Compound 10] | 5 (Level 5: growth control rate is above 85%) |
| CC(O/N=C/c1cc(-n2c(=O)n(C)c(=S)n(C)c2=O)c(F)cc1Cl)C(=O)OCCCF (racemic) [Compound 11] | 5 (Level 5: growth control rate is above 85%) |

System: Echinochloa crusgalli
Assay: Weeding effect in post-emergence stage
Type: in vivo
Settings: Dose 15 g/ha; level of fresh weight growth control rate
Excerpt: as §1
Monocotyledonous and dicotyledonous weed seeds (Descurainia sophia, Capsella bursa-pastoris, Abutilon theophrasti, Galium aparine, Stellaria media, Lithospermum arvense, rorippa indica, Alopecurus aequalis, Alopecurus japonicus, Eleusine indica, Beckmannia syzigachne, Sclerochloa dura, Conyza Canadensis, Phleum paniculatum, Veronica didyma Tenore, Bromus japonicus, Aegilops tauschii, Phalaris arundinacea, Amaranthus retroflexus, Chenopodiaceae, Commelina communis, Sonchus arvensis, Convolvulus arvensis, Cirsium setosum, Bidens tripartita L., Solanum nigrum, Acalypha australis, Digitaria sanguinalis, Echinochloa crusgalli, Setaria viridis, Setaria glauca, Leptochloa chinensis, Monochoria vaginalis, Sagittaria trifolia, Scirpus juncoides, Cyperus rotundus, Cyperus iria, Cyperus difformis, Fimbristylis, Portulaca oleracea, Xanthium sibiricum, Pharbitis nil, etc.) and major crop seeds (wheat, corn, rice, soybean, cotton, oilseed rape, millet, sorghum, potato, sesame, ricinus, etc.) were placed in plastic pots filled with soil, then covered with 0.5-2 cm of soil, allowed to grow in a good greenhouse environment. After 2 weeks of sowing, the test plants were treated in the 2-3 leaf stage. The tested compounds of the present invention were respectively dissolved in acetone, then added with Tween 80 and 1.5 liter/ha of emulsifiable concentrate of methyl oleate as synergist, diluted with a certain amount of water to obtain a solution with a certain concentration, and sprayed with a spray tower onto the plants. After the application, the plants were cultured for 3 weeks in the greenhouse, and then the experimental results of the weeding were counted. The doses of the used compounds were 500, 250, 125, 60, 30, 15, 7.5 g/ha, and the averages were obtained by repeating for three times.

| Compound | Weeding effect in post-emergence stage, Echinochloa crusgalli |
| --- | --- |
| CCCOC(=O)C(C)O/N=C/c1cc(-n2c(=O)n(C)c(=S)n(C)c2=O)c(F)cc1Cl (racemic) [Compound 4] | 5 (Level 5: growth control rate is above 85%) |
| CC(C)OC(=O)C(C)O/N=C/c1cc(-n2c(=O)n(C)c(=S)n(C)c2=O)c(F)cc1Cl (racemic) [Compound 5] | 5 (Level 5: growth control rate is above 85%) |
| C=CCCOC(=O)C(C)O/N=C/c1cc(-n2c(=O)n(C)c(=S)n(C)c2=O)c(F)cc1Cl (racemic) [Compound 6] | 5 (Level 5: growth control rate is above 85%) |
| CC(O/N=C/c1cc(-n2c(=O)n(C)c(=S)n(C)c2=O)c(F)cc1Cl)C(=O)OCC1CC1 (racemic) [Compound 9] | 5 (Level 5: growth control rate is above 85%) |
| CC(O/N=C/c1cc(-n2c(=O)n(C)c(=S)n(C)c2=O)c(F)cc1Cl)C(=O)OCCF (racemic) [Compound 10] | 5 (Level 5: growth control rate is above 85%) |
| CC(O/N=C/c1cc(-n2c(=O)n(C)c(=S)n(C)c2=O)c(F)cc1Cl)C(=O)OCCCF (racemic) [Compound 11] | 5 (Level 5: growth control rate is above 85%) |
